ChEMBL document CHEMBL1201862, “PubChem BioAssay data set” (2004)
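Dose response: 5 concentrations. Exposure: 48 h. Format: 96-well plates. Endpoint: linear interpolation; highest concentration if not reached. Abbreviation: GI50, concentration required for 50% inhibition of growth.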 Active and inactive are the calls of the source. Cut-off read from the data, not from the text of the source: active = GI50 up to about 1.1 µM and inactive = higher.

Key:
Assay in all cases: inhibition of tumour cell growth, NCI panel, 48 h
[1] = tested on: 786-0
[2] = tested on: CCRF-CEM
[3] = tested on: DU-145
[4] = tested on: EKVX
[5] = tested on: HCC 2998
[6] = tested on: HCT-15
[7] = tested on: HOP-62
[8] = tested on: HOP-92
[9] = tested on: K562
[10] = tested on: NCI-H522
[11] = tested on: OVCAR-5
[12] = tested on: RXF 393
[13] = tested on: SF-295
[14] = tested on: SF-539
[15] = tested on: SK-MEL-28
[16] = tested on: SK-MEL-2
[17] = tested on: SK-MEL-5
[18] = tested on: SNB-75
[19] = tested on: U-251
[20] = tested on: UACC-257

With `COc1ccc2nc3n(c2c1)C(=O)c1ccccc1-3` the GI50 [1] was > 100 µM (inactive), the GI50 [2] was > 100 µM (inactive) and the GI50 [3] was > 100 µM (inactive). For the same molecule, the GI50 [4] was > 100 µM (inactive), the GI50 [5] was > 100 µM (inactive) and the GI50 [6] was > 100 µM. The GI50 [7] was > 100 µM (inactive), the GI50 [8] was > 100 µM (inactive) and the GI50 [9] was > 100 µM (inactive). For the same molecule, the GI50 [10] was > 100 µM (inactive), the GI50 [11] was > 100 µM (inactive) and the GI50 [12] was > 100 µM (inactive). The GI50 [13] was > 100 µM (inactive), the GI50 [14] was > 100 µM (inactive) and the GI50 [15] was > 100 µM (inactive). For the same molecule, the GI50 [16] was > 100 µM (inactive), the GI50 [17] was > 100 µM (inactive) and the GI50 [18] was > 100 µM (inactive). For the same molecule, the GI50 [19] was > 100 µM (inactive) and the GI50 [20] was > 100 µM (inactive).
With `Cc1nc2ccccc2n1Cc1nnc(N)o1` the GI50 [1] was > 100 µM (inactive), the GI50 [2] was > 100 µM (inactive) and the GI50 [3] was > 100 µM (inactive). For the same molecule, the GI50 [4] was > 100 µM (inactive), the GI50 [5] was > 100 µM (inactive) and the GI50 [6] was > 100 µM. For the same molecule, the GI50 [7] was > 100 µM (inactive), the GI50 [8] was > 100 µM (inactive) and the GI50 [9] was > 100 µM (inactive). For the same molecule, the GI50 [10] was > 100 µM (inactive), the GI50 [11] was > 100 µM (inactive) and the GI50 [12] was > 100 µM (inactive). For the same molecule, the GI50 [13] was > 100 µM (inactive), the GI50 [14] was > 100 µM (inactive) and the GI50 [15] was > 100 µM (inactive). The GI50 [16] was > 100 µM (inactive), the GI50 [17] was > 100 µM (inactive) and the GI50 [18] was > 100 µM (inactive). The GI50 [19] was > 100 µM (inactive) and the GI50 [20] was > 100 µM (inactive).
For `COc1ccccc1C(=O)NCC1CCCN2CCCCC12` (stereo not given), the GI50 [1] was > 100 µM (inactive), the GI50 [2] was > 100 µM (inactive) and the GI50 [3] was > 100 µM (inactive). For the same molecule, the GI50 [4] was > 100 µM (inactive), the GI50 [5] was > 100 µM (inactive) and the GI50 [6] was > 100 µM. The GI50 [7] was > 100 µM (inactive), the GI50 [8] was > 100 µM (inactive) and the GI50 [9] was > 100 µM (inactive). For the same molecule, the GI50 [10] was > 100 µM (inactive), the GI50 [11] was > 100 µM (inactive) and the GI50 [12] was > 100 µM (inactive). The GI50 [13] was 1.24 µM (inactive), the GI50 [14] was > 100 µM (inactive) and the GI50 [15] was > 100 µM (inactive). The GI50 [16] was > 100 µM (inactive), the GI50 [17] was > 100 µM (inactive) and the GI50 [18] was > 100 µM (inactive). The GI50 [19] was > 100 µM (inactive) and the GI50 [20] was > 100 µM (inactive).
`Nc1n[nH]c(N)n1` [GUANAZOLE] was tested, and the GI50 [1] was 2580 µM (inactive), the GI50 [2] was 1720 µM (inactive) and the GI50 [3] was 5130 µM (inactive). For the same molecule, the GI50 [4] was 7350 µM (inactive), the GI50 [5] was 6900 µM (inactive) and the GI50 [6] was 7670 µM. The GI50 [7] was 2360 µM (inactive), the GI50 [8] was 5190 µM (inactive) and the GI50 [9] was 7110 µM (inactive). For the same molecule, the GI50 [10] was 2680 µM (inactive), the GI50 [11] was 4980 µM (inactive) and the GI50 [12] was 6820 µM (inactive). For the same molecule, the GI50 [13] was 2360 µM (inactive), the GI50 [14] was 2510 µM (inactive) and the GI50 [15] was > 6150 µM (inactive). For the same molecule, the GI50 [16] was > 9790 µM (inactive), the GI50 [17] was 3940 µM (inactive) and the GI50 [18] was 9250 µM (inactive). The GI50 [19] was 3800 µM (inactive) and the GI50 [20] was 6430 µM (inactive).
